Results as given in ChEMBL document CHEMBL5029142, “Stapled Wasp Venom-Derived Oncolytic Peptides with Side Chains Induce Rapid Membrane Lysis and Prolonged Immune Responses in Melanoma” (J Med Chem, 2021).
Calls of active or inactive are those of the source. No cut-off for these calls is given here. Starred links: 1 amine or outer side, 2 acyl side, 3 side chain; linkers in the order of their positions; H or OH if unused. Positions of bridges follow the written chain, without caps; N, C: chain ends. Non-standard residues stand in square brackets, D forms with d. Residues, ends and D or L forms follow the SMILES beside them. ξ: configuration not given here. ξαMeNle(6-ylidene) = CC(CCCC=[*:3])(N[*:1])C(=O)[*:2]; X1 = CC(C)C[C@@](CCCC=[*:3])(N[*:1])C(=O)[*:2]; X2 = NCCCC[C@@](CCCC=[*:3])(N[*:1])C(=O)[*:2]; Dip = N[C@H](C(=O)O)C(c1ccccc1)c1ccccc1; S5 = C=CCCC[C@](C)(N)C(=O)O

How the values were obtained:
[1] = test system: 4T1; experiment: Antiproliferative activity against triple-negative mouse 4T1 cells assessed as inhibition of cell growth measured after 24 hrs by Cell Counting Kit-8 assay; assay type: functional, cell-based; conditions: 4T1, 24 h
[2] = test system: B16-F10; experiment: Antiproliferative activity against mouse B16-F10 cells assessed as inhibition of cell growth measured after 24 hrs by Cell Counting Kit-8 assay; assay type: functional, cell-based; conditions: B16-F10, 24 h
[3] = test system: 4T1; experiment: Antitumor immunity against mouse 4T1 cells implanted in […] mouse assessed as surface translocation of calreticulin at IC75 measured after 6 hrs by DiR/Hoechst 33342 staining based confocal microscopic analysis; assay type: functional, cell-based
[4] = test system: 4T1; experiment: Antitumor immunity against mouse 4T1 cells implanted in […] mouse assessed as release of HMGB-1 at IC75 measured after 6 hrs by Hoechst 33342 staining based confocal microscopic analysis; assay type: functional, cell-based
[5] = test system: B16-F10; experiment: Antitumor activity against mouse B16-F10 cells implanted in C57 mouse assessed as increase in infiltration of CD8 positive T cells into tumors at 1 mg, IT administered once daily for 3 consecutive days starting from day 5 post inoculation and measured after 10 days by histochemical staining based analysis; assay type: functional, cell-based; conditions: time 10.0 day
[6] = test system: 4T1; experiment: Antitumor activity against mouse 4T1 cells implanted in […] mouse assessed as increase in infiltration of CD4 positive T lymphocytes in tumors at 1 mg, IT administered once daily for 3 consecutive days starting from day 2 post inoculation and measured after 7 days by histochemical staining based analysis; assay type: functional, cell-based; conditions: time 7.0 day
[7] = Stability of the compound assessed as alpha chymotrypsin (unknown origin)-mediated proteolysis by measuring parent compound remaining at 1 mM measured up to 12 hrs by HPLC analysis; assay type: ADME; conditions: human, read-out: Stability
[8] = Hemolytic activity in mouse RBC assessed as hemoglobin release at 20 to 80 uM incubated for 1 hr by absorbance based method; assay type: tissue-based; conditions: erythrocyte, dose 20-80 µM
[9] = test system: 4T1; experiment: Antitumor activity against mouse 4T1 cells implanted in BALB/c mouse assessed as inhibition of tumor progression at 1 mg, IT administered once daily for 3 consecutive days starting from day 2 post inoculation; assay type: functional, cell-based; conditions: time 3.0 day
[10] = test system: 4T1; experiment: Cytotoxicity against mouse 4T1 cells assessed as loss of membrane integrity by measuring increase in LDH release incubated for 24 hrs by LDH release assay; assay type: functional, cell-based
[11] = test system: 4T1; experiment: Antitumor activity against mouse 4T1 cells implanted in […] mouse assessed as increase in infiltration of CD8 positive T lymphocytes in tumors at 1 mg, IT administered once daily for 3 consecutive days starting from day 2 post inoculation and measured after 7 days by histochemical staining based analysis; assay type: functional, cell-based; conditions: time 7.0 day
[12] = test system: B16-F10; experiment: Antitumor immunity against mouse B16-F10 cells implanted in C57 mouse assessed as surface translocation of calreticulin at IC75 measured after 6 hrs by DiR/Hoechst 33342 staining based confocal microscopic analysis; assay type: functional, cell-based
[13] = test system: B16-F10; experiment: Antitumor activity against mouse B16-F10 cells implanted in C57 mouse assessed as reduction in tumor growth at 1 mg, IT administered once daily for 3 consecutive days starting from day 5 post inoculation; assay type: functional, cell-based; conditions: time 3.0 day
[14] = test system: B16-F10; experiment: Antitumor immunity against mouse B16-F10 cells implanted in C57 mouse assessed as release of HMGB-1 at IC75 measured after 6 hrs by Hoechst 33342 staining based confocal microscopic analysis; assay type: functional, cell-based
[15] = Toxicity in 4T1 tumor bearing BALB/c mouse assessed as increase in body weight at 1 mg, IT administered once daily for 3 consecutive days starting from day 2 post inoculation; conditions: in vivo, other, 72 h, time 3 day
[16] = test system: B16-F10; experiment: Antitumor activity against mouse B16-F10 cells implanted in C57 mouse assessed as increase in infiltration of CD4 positive T cells into tumors at 1 mg, IT administered once daily for 3 consecutive days starting from day 5 post inoculation and measured after 10 days by histochemical staining based analysis; assay type: functional, cell-based; conditions: time 10.0 day
[17] = test system: 4T1; experiment: Induction of morphological changes in mouse 4T1 cells assessed as appearance of broken cell particles measured after 5 mins by bright field 3D live-cell imaging analysis; assay type: functional, cell-based
[18] = test system: 4T1; experiment: Antitumor activity against mouse 4T1 cells implanted in BALB/c mouse assessed as necrosis at 1 mg, IT administered once daily for 3 consecutive days starting from day 2 post inoculation and measured on day 18 by hematoxylin-eosin staining based assay; assay type: functional, cell-based; conditions: time 18.0 day
[19] = Toxicity in B16-F10 tumor bearing C57 mouse assessed as change in body weight at 1 mg, IT administered once daily for 3 consecutive days starting from day 5 post inoculation; conditions: in vivo, other, 72 h, time 3 day
[20] = Stability of the compound assessed as alpha chymotrypsin (unknown origin)-mediated proteolysis by measuring degradation half life at 1 mM measured up to 12 hrs by HPLC analysis; assay type: ADME; conditions: human; for half-life at 1000 µM: alpha-chymotrypsin
[21] = test system: B16-F10; experiment: Antitumor activity against mouse B16-F10 cells implanted in C57 mouse assessed as induction of cell necrosis by measuring reduction in live cells at 1 mg, IT administered once daily for 3 consecutive days starting from day 5 post inoculation and measured after 10 to 14 days by hematoxylin-eosin staining based assay; assay type: functional; conditions: time 10-14 day
[22] = test system: 4T1; experiment: Cytotoxicity against mouse 4T1 cells assessed as disruption of cells by measuring increase in red fluorescence at 10 uM measured up to 3 hrs by calcein-AM and PI dual staining based live/dead cell viability assay; assay type: functional; conditions: time hrs <=3
[23] = test system: 4T1; experiment: Induction of morphological changes in mouse 4T1 cells assessed as change in adhesion measured up to 10 mins by bright field 3D live-cell imaging analysis; assay type: functional, cell-based; conditions: time min <=10
[24] = test system: 4T1; experiment: Cytotoxicity against mouse 4T1 cells assessed as increase in extracellular ATP level at 50 uM measured up to 60 mins by luminometric method; assay type: functional, cell-based; conditions: time min <=60
[25] = test system: 4T1; experiment: Antitumor activity against mouse 4T1 cells implanted in BALB/c mouse assessed as necrosis at 1 mg, IT administered once daily for 3 consecutive days starting from day 2 post inoculation and measured on day 7 by hematoxylin-eosin staining based assay; assay type: functional, cell-based; conditions: time 7.0 day
[26] = test system: B16-F10; experiment: Antitumor immunity against mouse B16-F10 cells implanted in anti-CD8 positive antibody stimulated C57 mouse assessed as inhibition of tumor progression at 1 mg, IT administered once daily for 3 consecutive days starting from day 7 and measured after 40 days; assay type: functional, cell-based; conditions: time 40.0 day
[27] = test system: 4T1; experiment: Cytotoxicity against mouse 4T1 cells assessed as permeabilization in to cell membrane at 10 uM measured up to 3 hrs by calcein-AM and PI dual staining based live/dead cell viability assay; assay type: functional; conditions: time hrs <=3, TDE = time-dependent effect
[28] = test system: B16-F10; experiment: Antitumor immunity against mouse B16-F10 cells implanted in anti-CD8 positive antibody stimulated C57 mouse assessed as inhibition of tumor progression at 1 mg, IT administered once daily for 3 consecutive days starting from day 7 and measured after 20 days; assay type: functional, cell-based; conditions: time 20.0 day
[29] = Hemolytic activity in mouse RBC assessed as hemoglobin release at 80 uM incubated for 1 hr by absorbance based method relative to control; assay type: ADME, tissue-based, Erythrocyte; conditions: mouse red blood cells, read-out: Activity

Compound | IC50 [1] [µM] | IC50 [2] [µM] | Activity [5] | Activity [6] | Activity [9] | Activity [10] | Activity [11] | Activity [13] | Activity [15] | Activity [16] | Activity [18] | Activity [19] | Activity [21] | Activity [22] | Activity [25] | also measured
CC(C)C[C@H](NC(=O)CN)C(=O)N[C@@H](CC(C)C)C(=O)N[C@@H](CCCCN)C(=O)N[C@@H](CCCNC(=N)N)C(=O)N[C@@]1(C)CCC/C=C\CCC[C@@](C)(C(N)=O)NC(=O)[C@H](CC(C)C)NC(=O)[C@H]([C@@H](C)O)NC(=O)[C@H](CCCCN)NC1=O (H-GLLKR[S5]KTL[S5]-NH2; staple (Z) 6-10) | 31.2 | 66.1 | – | – | – | – | – | – | – | – | – | – | – | – | – | –
CC[C@H](C)[C@@H]1NC(=O)[C@@](C)(NC(=O)[C@H](CCCCN)NC(=O)[C@H](CC(C)C)NC(=O)[C@H](CC(C)C)NC(=O)CN)CCC/C=C\CCC[C@@](C)(C(=O)N[C@@H](CC(C)C)C(N)=O)NC(=O)[C@H]([C@@H](C)O)NC(=O)[C@H](CCCCN)NC1=O (H-GLLK[S5]IKT[S5]L-NH2; staple (Z) 5-9) | 5.15 | 15.7 | – | – | – | – | – | – | – | – | – | – | – | – | – | –
CC[C@H](C)[C@@H]1NC(=O)[C@H](CCCNC(=N)N)NC(=O)[C@@](C)(NC(=O)[C@H](CC(C)C)NC(=O)[C@H](CC(C)C)NC(=O)CN)CCC/C=C\CCC[C@@](C)(C(=O)N[C@@H](CC(C)C)C(=O)N[C@@H](CC(C)C)C(N)=O)NC(=O)[C@H](CCCCN)NC1=O (H-GLL[S5]RIK[S5]LL-NH2; staple (Z) 4-8) | 33.5 | 59.7 | – | – | – | – | – | – | – | – | – | – | – | – | – | –
CC[C@H](C)[C@@H]1NC(=O)[C@H](CCCNC(=N)N)NC(=O)[C@H](CCCCN)NC(=O)[C@@](C)(NC(=O)[C@H](CC(C)C)NC(=O)CN)CCC/C=C\CCC[C@@](C)(C(=O)N[C@H](C(=O)N[C@@H](CC(C)C)C(=O)N[C@@H](CC(C)C)C(N)=O)[C@@H](C)O)NC1=O (H-GL[S5]KRI[S5]TLL-NH2; staple (Z) 3-7) | 4.02 | 16.1 | Active | inactive | inactive | Dose-Dependent Effect | inactive | Active | Non-Toxic | Active | inactive | Non-Toxic | Active | Active | Active | Activity [3]: Active; Activity [4]: Active; remaining at 12 h, 1000 µM [7]: > 60%; Activity [8]: Toxic; Activity [12]: Active; Activity [14]: Active; Activity [17]: Active; Stability ([20]; 12 h, 1000 µM): Stable; Activity [23]: Active; Activity [24]: Active
CC[C@H](C)[C@@H]1NC(=O)[C@H](CCCNC(=N)N)NC(=O)[C@H](CCCCN)NC(=O)[C@@](CC(C)C)(NC(=O)[C@H](CC(C)C)NC(=O)CN)CCC/C=C\CCC[C@@](CCCCN)(C(=O)N[C@H](C(=O)N[C@@H](CC(C)C)C(=O)N[C@@H](CC(C)C)C(N)=O)[C@@H](C)O)NC1=O (H-GL[X1]KRI[X2]TLL-NH2; staple (Z) 3-7) | 6.57 | 30.4 | Active | inactive | inactive | – | inactive | Active | Non-Toxic | Active | inactive | Non-Toxic | Active | – | Active | Activity [26]: inactive; Activity [27]: Tde; Activity [28]: inactive; hemolysis at 1 h, 80 µM [29]: < 10%
CC[C@H](C)[C@H](NC(=O)[C@]1(C)CCC/C=C\CCCC(C)(N)C(=O)N[C@@H](CC(C)C)C(=O)N[C@@H](CC(C)C)C(=O)N[C@@H](CCCCN)C(=O)N1)C(=O)N[C@@H](CCCCN)C(=O)N[C@H](C(=O)N[C@@H](CC(C)C)C(=O)N[C@@H](CC(C)C)C(N)=O)[C@@H](C)O (stereo partly drawn) (H-[ξαMeNle(6-ylidene)]LLK[S5]IKTLL-NH2; staple (Z) 1-5) | 5.15 | 15.1 | – | – | – | – | – | – | – | – | – | – | – | – | – | Activity [8]: Toxic
CC[C@H](C)[C@H](NC(=O)[C@H](CCCNC(=N)N)NC(=O)[C@H](CCCCN)NC(=O)[C@H](CC(C)C)NC(=O)[C@H](CC(C)C)NC(=O)CN)C(=O)N[C@@H](CCCCN)C(=O)N[C@H](C(=O)N[C@@H](CC(C)C)C(=O)N[C@@H](CC(C)C)C(N)=O)[C@@H](C)O [ANOPLIN] (H-GLLKRIKTLL-NH2) | 191 | > 400 | Active | inactive | – | Dose-Dependent Effect | inactive | inactive | Non-Toxic | Active | – | Non-Toxic | – | inactive | – | half-life at 1000 µM [20]: 12 min
NCCCC[C@H](NC(=O)[C@@H](NC(=O)[C@H](Cc1c[nH]c2ccccc12)NC(=O)[C@H](CCCCN)NC(=O)[C@H](CCCCN)NC(=O)[C@H](Cc1c[nH]c2ccccc12)NC(=O)[C@H](Cc1c[nH]c2ccccc12)NC(=O)[C@H](CCCCN)NC(=O)[C@@H](N)CCCCN)C(c1ccccc1)c1ccccc1)C(N)=O [RUXOTEMITIDE] (H-KKWWKKW[Dip]K-NH2) | – | – | Active | inactive | inactive | Dose-Dependent Effect | inactive | Active | Non-Toxic | Active | inactive | Non-Toxic | Active | Active | Active | half-life at 1000 µM [20]: 34 min; Activity [24]: Active
